Data published in US9963448B2, “Bicyclic inhibitors of PAD4” (Padlock Therapeutics, Inc., priority 2015, dated 2018).
pIC50: −log10 of the molar value. Structures can show the parent of a compound that is named as a salt. Where two headings read alike, the source gives them in different places.

What was measured:
hPAD4 = hPAD4 (Homo sapiens, UniProt Q9UM07); experiment: hPAD4 RFMS (RapidFire mass spectrometry) PAD4 inhibition assay; assay type: biochemical; details: hPAD4 enzyme, RFMS readout; for IC50: read-out: hPAD4 RFMS pIC50 (converted); for pIC50: read-out: hPAD4 RFMS IC50;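 as to hPAD4 RFMS pIC50: grade E means pIC50 at most 4 and F means pIC50 4.0 to 5.0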
Method: (§1) Compounds of the present invention were assayed as inhibitors of PAD4 using the assay protocol described below.
(§2) Compound stock solutions were stored at RT. […] Final assay conditions were as follows:
(§3) Total incubation time: 65 mins at 37° C.
(§4) Stop solution: 40 μl 5% TCA in ACN
(§5) The compound numbers correspond to the compound numbers in Table 1. […] The term pIC50=−log(IC50). […] “NA” stands for “not assayed.”

mPAD4 = mPAD4 (Mus musculus, UniProt Q9Z183); experiment: mPAD4 RFMS PAD4 inhibition assay; assay type: biochemical; details: mPAD4, RFMS readout; for IC50: pIC50=−log(IC50), read-out: mPAD4 RFMS pIC50 (converted); for pIC50: read-out: mPAD4 RFMS IC50;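 as to mPAD4 RFMS pIC50: grade E means pIC50 at most 4 and F means pIC50 4.0 to 5.0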
Method: as §1, §2, §3, §4, §5

Sequence of hPAD4 (Q9UM07 whole entry): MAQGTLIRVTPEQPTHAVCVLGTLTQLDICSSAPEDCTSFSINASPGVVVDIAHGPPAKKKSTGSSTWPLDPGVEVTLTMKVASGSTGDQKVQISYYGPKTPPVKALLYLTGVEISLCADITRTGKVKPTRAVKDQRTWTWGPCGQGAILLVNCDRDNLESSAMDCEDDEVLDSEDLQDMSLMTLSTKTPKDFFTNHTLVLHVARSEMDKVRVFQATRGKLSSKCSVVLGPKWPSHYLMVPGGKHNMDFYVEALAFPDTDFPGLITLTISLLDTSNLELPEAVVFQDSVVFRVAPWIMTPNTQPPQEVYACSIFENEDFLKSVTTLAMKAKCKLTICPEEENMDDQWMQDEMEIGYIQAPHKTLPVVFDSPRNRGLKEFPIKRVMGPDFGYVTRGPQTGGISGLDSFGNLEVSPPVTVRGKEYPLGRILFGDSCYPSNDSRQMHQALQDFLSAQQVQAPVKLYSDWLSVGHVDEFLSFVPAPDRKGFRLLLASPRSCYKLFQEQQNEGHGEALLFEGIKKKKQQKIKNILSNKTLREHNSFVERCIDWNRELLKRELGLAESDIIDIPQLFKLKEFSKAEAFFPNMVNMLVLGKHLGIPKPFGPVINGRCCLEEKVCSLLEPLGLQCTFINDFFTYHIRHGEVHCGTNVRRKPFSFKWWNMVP
Sequence of mPAD4 (Q9Z183 whole entry): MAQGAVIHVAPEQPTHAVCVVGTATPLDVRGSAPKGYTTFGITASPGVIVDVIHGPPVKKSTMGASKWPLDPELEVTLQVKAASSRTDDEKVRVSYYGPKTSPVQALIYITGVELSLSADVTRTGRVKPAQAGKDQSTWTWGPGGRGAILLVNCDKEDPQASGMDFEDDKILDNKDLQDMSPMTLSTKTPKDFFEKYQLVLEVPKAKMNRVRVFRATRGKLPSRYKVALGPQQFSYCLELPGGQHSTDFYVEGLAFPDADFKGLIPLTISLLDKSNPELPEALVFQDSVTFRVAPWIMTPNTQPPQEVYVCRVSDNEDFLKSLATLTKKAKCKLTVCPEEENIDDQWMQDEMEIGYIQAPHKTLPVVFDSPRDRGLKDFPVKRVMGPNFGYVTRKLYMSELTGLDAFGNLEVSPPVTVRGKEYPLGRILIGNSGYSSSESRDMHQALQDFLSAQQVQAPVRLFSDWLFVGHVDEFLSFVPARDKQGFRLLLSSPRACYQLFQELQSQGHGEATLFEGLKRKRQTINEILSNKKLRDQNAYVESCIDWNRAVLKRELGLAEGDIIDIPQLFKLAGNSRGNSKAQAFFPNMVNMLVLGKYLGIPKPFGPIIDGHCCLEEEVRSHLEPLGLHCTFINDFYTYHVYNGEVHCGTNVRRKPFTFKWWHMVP

IC50 (hPAD4; pIC50=−log(IC50)) [nM] | pIC50 (hPAD4) | IC50 (mPAD4) [µM] | pIC50 (mPAD4) | hPAD4 RFMS pIC50 (hPAD4; pIC50=−log(IC50)) | SMILES
1000 to 10000 | 5.30 to 6.00 | 1 to 10 | 5.30 to 6.00 | – | COc1cc(C(=O)N2CCC(F)C(N)C2)cc2nc(-c3cc4cccnc4n3CC3CC3)n(C)c12 (racemic) [Compound I-75, 1-{2-[1-(Cyclopropylmethyl)-1H-pyrrolo[2,3-b]pyridin-2-yl]-7-methoxy-1-methyl-1H-1,3-benzodiazole-5-carbonyl}-4-fluoropiperidin-3-amine]
10000 to 100000 | < 5.00 | 10 to 100 | < 5.00 | – | CN[C@@H]1C[C@@H](O)CN(C(=O)c2cc(OC)c3c(c2)nc(-c2cc4cccnc4n2CC2CC2)n3C)C1 (racemic) [Compound I-77, Rel-(3R,5R)-1-{2-[1-(cyclopropylmethyl)-1H-pyrrolo[2,3-b]pyridin-2-yl]-7-methoxy-1-methyl-1H-1,3-benzodiazole-5-carbonyl}-5-(methylamino)piperidin-3-ol hydrochloride]
1000 to 10000 | 5.00 to 5.30 | 1 to 10 | 5.30 to 6.00 | – | COc1cc(C(=O)N2C[C@@H](N)C[C@H](O)C2)cc2nc(-c3cc4cccnc4n3CC3CC3)n(C)c12 (racemic) [Compound I-80]
10000 to 100000 | < 5.00 | 10 to 100 | < 5.00 | – | COc1cc(C(=O)N2CC(N)CC(C#N)C2)cc2nc(-c3cc4cccnc4n3CC3CC3)n(C)c12 (racemic) [Compound I-82, 5-Amino-1-{2-[1-(cyclopropylmethyl)-1H-pyrrolo[2,3-b]pyridin-2-yl]-7-methoxy-1-methyl-1H-1,3-benzodiazole-5-carbonyl}piperidine-3-carbonitrile]
< 1000 | > 6.00 | < 1 | > 6.00 | – | COc1cc(C(=O)N2CCC(OC(F)F)C(N)C2)cc2nc(-c3cc4cccnc4n3CC3CC3)n(C)c12 (racemic) [Compound I-86, rac-(3R,4S)-1-{2-[1-(cyclopropylmethyl)-1H-pyrrolo[2,3-b]pyridin-2-yl]-7-methoxy-1-methyl-1H-1,3-benzodiazole-5-carbonyl}-4-(difluoromethoxy)piperidin-3-amine]
< 1000 | > 6.00 | – | – | – | COc1ccc2cc(-c3nc4cc(C(=O)N5C[C@H](N)CC[C@@H]5C)ccc4n3C)n(CC3CC3)c2n1 [Compound I-352, ((2S,5R)-5-amino-2-methylpiperidin-1-yl)(2-(1-(cyclopropylmethyl)-6-methoxy-1H-pyrrolo[2,3-b]pyridin-2-yl)-1-methyl-1H-benzo[d]imidazol-5-yl)methanone]
< 1000 | > 6.00 | – | – | – | COc1ccc2cc(-c3nc4cc(C(=O)N5C[C@H]6CC[C@@H]5[C@@H]6N)ccc4n3C)n(CC3CC3)c2n1 [Compound I-353, ((1R,4R,7R)-7-amino-2-azabicyclo[2.2.1]heptan-2-yl)(2-(1-(cyclopropylmethyl)-6-methoxy-1H-pyrrolo[2,3-b]pyridin-2-yl)-1-methyl-1H-benzo[d]imidazol-5-yl)methanone]
< 1000 | > 6.00 | – | – | – | COc1ccc2cc(-c3nc4cc(C(=O)N5C[C@@H](N)C[C@H](F)C5)cc(OC)c4n3C)n(CC3CC3)c2n1 [Compound I-356, ((3S,5S)-3-amino-5-fluoropiperidin-1-yl)(2-(1-(cyclopropylmethyl)-6-methoxy-1H-pyrrolo[2,3-b]pyridin-2-yl)-7-methoxy-1-methyl-1H-benzo[d]imidazol-5-yl)methanone]
< 1000 | > 6.00 | – | – | – | COc1cc(C(=O)N2C[C@H]3CCC2[C@H]3N)cc2nc(-c3cc4cc(/C=C/CCc5ccccc5)ccc4n3CC3CC3)n(C)c12 [Compound I-360]
< 1000 | > 6.00 | – | – | – | COc1cc(C(=O)N2C[C@H]3CC[C@H]2[C@H]3N)cc2nc(-c3cc4cc(/C=C/c5ccc(C(F)(F)F)cc5)ccc4n3CC3CC3)n(C)c12 [Compound I-361, ((1S,4R)-7-amino-2-azabicyclo[2.2.1]heptan-2-yl)(2-(1-(cyclopropylmethyl)-5-((E)-4-(trifluoromethyl)styryl)-1H-indol-2-yl)-7-methoxy-1-methyl-1H-benzo[d]imidazol-5-yl)methanone]
< 1000 | > 6.00 | – | – | – | COc1cc(C(=O)N2C[C@H]3CC[C@@H]2[C@@H]3N)cc2nc(-c3cc4cc(C5=Cc6ccccc6C5)ccc4n3CC3CC3)n(C)c12 [Compound I-362]
< 1000 | > 6.00 | – | – | – | COc1cc(C(=O)N2C[C@H]3CCC2[C@H]3N)cc2nc(-c3cc4ccc(/C=C/C5CC5)cc4n3CC3CC3)n(C)c12 [Compound I-363]
< 1000 | > 6.00 | – | – | – | COc1cc(C(=O)N2C[C@H]3CCC2[C@H]3N)cc2nc(-c3cc4ccc(/C=C/CC(C)C)cc4n3CC3CC3)n(C)c12 [Compound I-364]
< 1000 | > 6.00 | – | – | – | COc1cc(C(=O)N2C[C@H]3CCC2[C@H]3N)cc2nc(-c3cc4ccc(/C=C/c5ccccc5)cc4n3CC3CC3)n(C)c12 [Compound I-365]
< 1000 | > 6.00 | – | – | – | COc1cc(C(=O)N2C[C@H]3CCC2[C@H]3N)cc2nc(-c3cc4ccc(/C=C/c5ccc(C(F)(F)F)cc5)cc4n3CC3CC3)n(C)c12 [Compound I-367]
< 1000 | > 6.00 | – | – | – | COc1cc(C(=O)N2C[C@H]3CCC2[C@H]3N)cc2nc(-c3cc4ccc(/C=C/CCc5ccccc5)cc4n3CC3CC3)n(C)c12 [Compound I-369]
< 1000 | > 6.00 | – | – | – | COc1cc(C(=O)N2C[C@H]3CC[C@@H]2[C@@H]3N)cc2nc(-c3cc4ccc(C#N)cc4n3CC3CC3)n(C)c12 [Compound I-371]
1000 to 10000 | 5.30 to 6.00 | – | – | – | COc1cc(C(=O)N2C[C@H]3CCC2[C@H]3N)cc2nc(-c3cc4cc(N(C)CCC5CC5)ccc4n3CC3CC3)n(C)c12 [Compound I-373]
< 1000 | > 6.00 | – | – | – | COc1cc(C(=O)N2C[C@H]3CC[C@@H]2[C@@H]3N)cc2nc(-c3cc4ccc(N(C)CCC5CC5)cc4n3CC3CC3)n(C)c12 [Compound I-376]

Second part, the molecule before the results:

SMILES | IC50 (hPAD4; pIC50=−log(IC50)) [nM] | pIC50 (hPAD4) | IC50 (mPAD4) [µM] | pIC50 (mPAD4) | hPAD4 RFMS pIC50 (hPAD4; pIC50=−log(IC50))
COC1CCN(C(=O)c2ccc3c(c2)nc(-c2cc4cccnc4n2CC2CC2)n3C)CC1N (racemic) [Compound I-62, 1-{2-[1-(cyclopropylmethyl)-1H-pyrrolo[2,3-b]pyridin-2-yl]-1-methyl-1H-1,3-benzodiazole-5-carbonyl}-4-methoxypiperidin-3-amine] | 1000 to 10000 | 5.30 to 6.00 | 1 to 10 | 5.00 to 5.30 | –
COc1cc(C(=O)N2CC(O)(C3CCCCN3)C2)cc2nc(-c3cc4cccnc4n3CC3CC3)n(C)c12 (racemic) [Compound I-74] | 10000 to 100000 | < 5.00 | 10 to 100 | < 5.00 | –
COc1cc(C(=O)N2CCC3OCCNC3C2)cc2nc(-c3cc4cccnc4n3CC3CC3)n(C)c12 (racemic) [Compound I-83] | 1000 to 10000 | 5.30 to 6.00 | 1 to 10 | 5.30 to 6.00 | –
COc1ccc2cc(-c3nc4cc(C(=O)N5C[C@@H](N)C[C@H](F)C5)ccc4n3C)n(CC3CC3)c2n1 [Compound I-354, ((3S,5S)-3-amino-5-fluoropiperidin-1-yl)(2-(1-(cyclopropylmethyl)-6-methoxy-1H-pyrrolo[2,3-b]pyridin-2-yl)-1-methyl-1H-benzo[d]imidazol-5-yl)methanone] | < 1000 | > 6.00 | – | – | –
COc1ccc2cc(-c3nc4cc(C(=O)N5C[C@H](N)CC[C@@H]5C)cc(OC)c4n3C)n(CC3CC3)c2n1 [Compound I-355, ((2S,5R)-5-amino-2-methylpiperidin-1-yl)(2-(1-(cyclopropylmethyl)-6-methoxy-1H-pyrrolo[2,3-b]pyridin-2-yl)-7-methoxy-1-methyl-1H-benzo[d]imidazol-5-yl)methanone] | < 1000 | > 6.00 | – | – | –
COc1cc(C(=O)N2C[C@H]3CCC2[C@H]3N)cc2nc(-c3cc4cc(/C=C/C5CC5)ccc4n3CC3CC3)n(C)c12 [Compound I-357] | < 1000 | > 6.00 | – | – | –
COc1cc(C(=O)N2C[C@H]3CCC2[C@H]3N)cc2nc(-c3cc4cc(/C=C/CC(C)C)ccc4n3CC3CC3)n(C)c12 [Compound I-358] | < 1000 | > 6.00 | – | – | –
COc1cc(C(=O)N2C[C@H]3CCC2[C@H]3N)cc2nc(-c3cc4cc(/C=C/c5ccccc5)ccc4n3CC3CC3)n(C)c12 [Compound I-359] | < 1000 | > 6.00 | – | – | –
COc1cc(C(=O)N2C[C@H]3CCC2[C@H]3N)cc2nc(-c3cc4ccc(/C=C/Cc5ccccc5)cc4n3CC3CC3)n(C)c12 [Compound I-366] | < 1000 | > 6.00 | – | – | –
COc1cc(C(=O)N2C[C@H]3CCC2[C@H]3N)cc2nc(-c3cc4ccc(C5=Cc6ccccc6C5)cc4n3CC3CC3)n(C)c12 [Compound I-368] | < 1000 | > 6.00 | – | – | –
COc1cc(C(=O)N2C[C@H]3CC[C@@H]2[C@@H]3N)cc2nc(-c3cc4cc(NCC5CC5)ccc4n3CC3CC3)n(C)c12 [Compound I-372] | – | 5.30 to 6.00 | – | – | G/H
COc1cc(C(=O)N2C[C@H]3CC[C@H]2[C@H]3N)cc2nc(-c3cc4cc(NCCC5CC5)ccc4n3CC3CC3)n(C)c12 [Compound I-374, ((1S,4R)-7-amino-2-azabicyclo[2.2.1]heptan-2-yl)(2-(5-((2-cyclopropylethyl)amino)-1-(cyclopropylmethyl)-1H-indol-2-yl)-7-methoxy-1-methyl-1H-benzo[d]imidazol-5-yl)methanone] | < 1000 | > 6.00 | – | – | –
COc1cc(C(=O)N2C[C@H]3CC[C@@H]2[C@@H]3N)cc2nc(-c3cc4ccc(NCCC5CC5)cc4n3CC3CC3)n(C)c12 [Compound I-375] | < 1000 | > 6.00 | – | – | –
